Legend:
[1] = target: T1, HCV genotype 1b (BK) NS3 modified enzyme with a R155K mutation (Hepatitis C virus genotype 1b, UniProt P26663, R1181K); test: HCV NS3 protease time-resolved fluorescence (TRF) assay, genotype 1b R155K; type: biochemical; details: Ki 1b R155K
T1 construct: HCV genotype 1b (BK) NS3 modified enzyme
Method in brief: (§1)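 Time-resolved fluorescence, ex 340/em 615 nm, 400 μs delay; IC50 by four-parameter fit. Enzyme preincubated with compound 10 min, then TRF substrate 25 nM final added and reaction run 6 h at RT. Buffer HEPES pH 7.5 with NaCl, glycerol, Triton X-100, DTT, PEG 8000.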

[2] = target: HCV NS3 protease genotype 3a (3A-1) (Hepatitis C virus genotype 3a, UniProt Q81258); test: HCV NS3 protease time-resolved fluorescence (TRF) assay, genotype 3a; type: biochemical; details: Ki 3a
Method in brief: as §1

[3] = genotype 1b (BK) NS3 R155K, single value

`C=C[C@@H]1C[C@]1(NC(=O)[C@@H]1C[C@@H]2CN1C(=O)[C@H](C(C)(C)C)NC(=O)O[C@@H]1C[C@H]1CCCCCc1c(nc3ccccc3c1OCCCN(C)Cc1n[nH]c(=O)[nH]1)O2)C(=O)NS(=O)(=O)C1(C)CC1` [Example 199, (1aR,5S,8S,10R,22aR)-5-tert-butyl-N-[(1R,2S)-2-ethenyl-1-{[(1-methylcyclopropyl)sulfonyl]carbamoyl}cyclopropyl]-17-(3-{methyl[(5-oxo-4,5-dihydro-1H-1,2,4-triazol-3-yl)methyl]amino}propoxy)-3,6-dioxo-1,1a,3,4,5,6,9,10,18,19,20,21, 22,22a-tetradecahydro-8H-7,10-methanocyclopropa[18,19][1,10,3,6] dioxadiazacyclononadecino[11,12-b] quinoline-8-carboxamide] gave a Ki [1, 3] of 57 pM and a Ki [2] of 740 pM.
In the case of `C=C[C@@H]1CC1(NC(=O)[C@@H]1C[C@@H]2CN1C(=O)[C@H](C(C)(C)C)NC(=O)O[C@@H]1C[C@H]1CCCCCc1c(nc3ccccc3c1CN1CCOCC1)O2)C(=O)NS(=O)(=O)C1(C)CC1` (stereo partly drawn) [Example 248, potassium {[(1R,2S)-1-({[(1aR,5S,8S,10R,22aR)-5-tert-butyl-17-(morpholin-4-ylmethyl)-3,6-dioxo-1,1a,3,4,5,6,9,10,18,19,20,21,22,22a-tetradecahydro-8H-7,10-methanocyclopropa[18,19][1,10,3,6]dioxadiazacyclononadecino[11,12-b]quinolin-8-yl]carbonyl}amino)-2-ethenylcyclopropyl]carbonyl}[(1-methylcyclopropyl)sulfonyl]azanide], the Ki ([1]; first of two values printed in the cell (not explained)) is reported as 100 pM, the Ki ([1]; second of two values printed in the cell (not explained)) is reported as 348 pM and the Ki [2] is reported as 40200 pM.
`CC1(S(=O)(=O)NC(=O)[C@@]23C[C@H]2/C=C\CCCCC[C@@H]2NC(=O)O[C@@H]4C[C@H]4CCC/C=C/c4c(nc5ccccc5c4OCCN4CCOCC4)O[C@@H]4C[C@@H](C(=O)N3)N(C4)C2=O)CC1` [Example 297, (1aR,5S,11Z,12aS,13aR,16S,19R,27E, 31aR)-N-[(1-methylcyclopropyl)sulfonyl]-26-[2-(morpholin-4-yl)ethoxy]-3,15,33-trioxo-1,1a,3,4,5,6,7,8,9,10,12a,13,15,16,18,19,29, 30,31,31a-icosahydro-5,17:16,19-dimethanodicyclopropa[12,13:28,29][1,20,3, 14,17]dioxatriazacyclononacosino[21,22-b]quinoline-13a(14H)-carboxamide] showed a Ki [1, 3] of 270 pM and a Ki [2] of 4300 pM.
Compound `C=C[C@@H]1C[C@]1(NC(=O)[C@@H]1C[C@@H]2CN1C(=O)[C@H](C(C)(C)C)NC(=O)O[C@@H]1C[C@H]1CCCCCc1c(nc3ccccc3c1OCCCN(CC(O)c1ccc(O)c(O)c1)C(C)C)O2)C(=O)NS(=O)(=O)C1(C)CC1` (stereo partly drawn) [Example 188, (1aR,5S,8S,10R,22aR)-5-tert-butyl-17-(3-{[2-(3,4-dihydroxyphenyl)-2-hydroxyethyl](propan-2-yl)amino}propoxy)-N-[(1R,2S)-2-ethenyl-1-{[(1-methylcyclopropyl)sulfonyl]carbamoyl}cyclopropyl]-3,6-dioxo-1,1a,3,4,5,6,9,10,18,19,20, 21,22,22a-tetradecahydro-8H-7,10-methanocyclopropa[18,19][1,10,3,6] dioxadiazacyclononadecino[11,12-b] quinoline-8-carboxamide] has a Ki [1, 3] of 33 pM and a Ki [2] of 850 pM.
In the case of `C=C[C@@H]1C[C@]1(NC(=O)[C@@H]1C[C@@H]2CN1C(=O)[C@H](C1CCCCC1)NC(=O)O[C@@H]1C[C@H]1CCCCCc1c(nc3ccccc3c1OCCCN1CCN(S(C)(=O)=O)CC1)O2)C(=O)NS(=O)(=O)C1(C)CC1` [Example 165, (1aR,5S,8S,10R,22aR)-5-cyclohexyl-N-[(1R,2S)-2-ethenyl-1-{[(1-methylcyclopropyl)sulfonyl]carbamoyl}cyclopropyl]-17-{3-[4-(methylsulfonyl)piperazin-1-yl]propoxy}-3,6-dioxo-1,1a,3,4,5,6,9,10, 18,19,20,21,22,22a-tetradecahydro-8H-7,10-methanocyclopropa[18,19][1,10,3,6] dioxadiazacyclononadecino[11,12-b] quinoline-8-carboxamide], the Ki [1, 3] is reported as 240 pM and the Ki [2] is reported as 2800 pM.
For `C=CC1C[C@]1(NC(=O)[C@@H]1C[C@@H]2CN1C(=O)[C@H](C1CCCC1)NC(=O)O[C@@H]1CCC[C@H]1CC/C=C/Cc1c(nc3ccccc3c1OCCN1CCCC1)O2)C(=O)NS(=O)(=O)C1CC1` (stereo partly drawn) [Example 80, (3aR,7S,10S,12R,21E,24aS)-7-cyclo pentyl-N-{(1R,2S)-1-[(cyclopropylsulfonyl)carbamoyl]-2-ethenylcyclopropyl}-5,8-dioxo-19-[2-(pyrrolidin-1-yl)ethoxy]-1,2,3,3a,5,6,7,7,8,11,12,20,23,24,24a-tetradecahydro-10H-9,12-methanocyclopenta[18,19] [1,10,3,6]dioxa diazacyclononadecino[11,12-b] quinoline-10-carboxamide], the Ki [1, 3] was 200 pM and the Ki [2] was 2400 pM.
In the case of `C=C[C@@H]1C[C@]1(NC(=O)[C@@H]1C[C@@H]2CN1C(=O)[C@H](C1CCCC1)NC(=O)O[C@@H]1CCC[C@H]1CC/C=C/Cc1c(nc3ccccc3c1OCCCN1CCCC1)O2)C(=O)NS(=O)(=O)C1(C)CC1` [Example 54, (3aR,7S,10S,12R,21E,24aS)-7-cyclopentyl-N-[(1R,2S)-2-ethenyl-1-{[(1-methylcyclopropyl)sulfonyl]carbamoyl}cyclopropyl]-5,8-dioxo-19-[3-(pyrrolidin-1-yl)propoxy]-1,2,3,3a,5,6,7,8,11,12,20,23,24,24a-tetradecahydro-10H-9,12-methanocyclopenta[18,19][1,10,3,6] dioxadiazacyclononadecino[11,12-b] quinoline-10-carboxamide], the Ki [1, 3] is reported as 20 pM and the Ki [2] is reported as 450 pM.
Compound `C=C[C@@H]1C[C@]1(NC(=O)[C@@H]1C[C@@H]2CN1C(=O)[C@H](C1CCCC1)NC(=O)O[C@@H]1CCC[C@H]1CC/C=C/Cc1c(nc3ccccc3c1OCCCOC(=O)CN(C)C)O2)C(=O)NS(=O)(=O)C1CC1` [Example 74] has a Ki [1, 3] of 100 pM and a Ki [2] of 1300 pM.
With `C=C[C@@H]1C[C@]1(NC(=O)[C@@H]1C[C@@H]2CN1C(=O)[C@H](C1CCCC1)NC(=O)O[C@@H]1CCC[C@H]1CC/C=C/Cc1c(nc3ccccc3c1OCCCN1CCOCC1)O2)C(=O)NS(=O)(=O)C1CC1` [Example 87, (3aR,7S,10S,12R,21E,24aS)-7-cyclo pentyl-N-{(1R,2S)-1-[(cyclopropylsulfonyl)carbamoyl]-2-ethenylcyclopropyl}-19-[3-(morpholin-4-yl)propoxy]-5,8-dioxo-1,2,3,3a,5,6,7,8,11,12,20,23,24, 24a-tetradeca hydro-10H-9,12-methano cyclopenta[18,19][1,10,3,6] dioxadiazacyclononadecino [11,12-b]quinoline-10-carboxamide] the Ki [1, 3] was 240 pM and the Ki [2] was 3200 pM.
For `C=C[C@@H]1C[C@]1(NC(=O)[C@@H]1C[C@@H]2CN1C(=O)[C@H](C(C)(C)C)NC(=O)O[C@@H]1CCC[C@H]1CCCCCc1c(nc3ccccc3c1OCCN1CCOCC1)O2)C(=O)NS(=O)(=O)N(C)CCOC` [Example 111, (3aR,7S,10S,12R,24aR)-7-tert-butyl-N-[(1R,2S)-2-ethenyl-1-{[(2-methoxyethyl)(methyl)sulfamoyl]carbamoyl}cyclopropyl]-19-[2-(morpholin-4-yl)ethoxy]-5,8-dioxo-1,2,3,3a,5,6,7,8,11,12,20,21,22,23,24,24a-hexadecahydro-10H-9,12-methano-cyclopenta[18,19][1,10,3,6] dioxadiazacyclononadecino [11,12-b] quinoline-10-carboxamide], the Ki [1, 3] was 11000 pM and the Ki [2] was 272000 pM.
`C=C[C@@H]1C[C@]1(NC(=O)[C@@H]1C[C@@H]2CN1C(=O)[C@H](C1CCCC1)NC(=O)O[C@@H]1CCC[C@H]1CC/C=C/Cc1c(nc3ccccc3c1OCCN1CCCC1=O)O2)C(=O)NS(=O)(=O)C1CC1` [Example 79, (3aR,7S,10S,12R,21E,24aS)-7-cyclo pentyl-N-{(1R,2S)-1-[(cyclopropylsulfonyl)carbamoyl]-2-ethenylcyclopropyl}-5,8-dioxo-19-[2-(2-oxopyrrolidin-1-yl)ethoxy]-1,2,3,3a,5,6,7,8,11,12,20,23,24,24a-tetradeca hydro-10H-9,12-methanocyclopenta[18,19][1,10,3,6] dioxadiaza cyclononadecino[11,12-b]quinoline-10-carboxamide] was tested, and the Ki [1, 3] was 60 pM and the Ki [2] was 1800 pM.
Compound `C=C[C@@H]1C[C@]1(NC(=O)[C@@H]1C[C@@H]2CN1C(=O)[C@H](C(C)(C)C)NC(=O)O[C@@H]1C[C@H]1CCCCCc1c(nc3ccccc3c1OCCN1CCCCC1)O2)C(=O)NS(=O)(=O)C1(C)CC1` [Example 134, (1aR,5S,8S,10R,22aR)-5-tert-butyl-N-[(1R,2S)-2-ethenyl-1-{[(1-methylcyclopropyl)sulfonyl]carbamoyl}cyclopropyl]-3,6-dioxo-17-[2-(piperidin-1-yl)ethoxy]-1,1a,3,4,5,6,9,10,18,19,20,21,22,22a-tetradeca hydro-8H-7,10-methano cyclopropa[18,19][1,10,3,6]dioxadiazacyclo nonadecino[11,12-b]quinoline-8-carboxamide] has a Ki [1, 3] of 560 pM and a Ki [2] of 6100 pM.
Work on `CC[C@@H]1C[C@]1(NC(=O)[C@@H]1C[C@@H]2CN1C(=O)[C@H](C1CCCC1)NC(=O)O[C@@]1(C)CCC[C@@H]1CCCCCc1c(nc3ccccc3c1O)O2)C(=O)NS(=O)(=O)C1CC1` [Example 31, (3aS,7S,10S,12R,24aS)-7-cyclopentyl-N-{(1R,2R)-1-[(cyclopropylsulfonyl)carbamoyl]-2-ethylcyclopropyl}-19-hydroxy-3a-methyl-5,8-dioxo-1,2,3-3a,5,6,7,8,11,12,20,21,22,23,24,24a-hexadeca hydro-10H-9,12-methanocyclopenta[18,19] [1,10,3,6]dioxadiazacyclononadecino[11,12-b] quinoline-10-carboxamide] yielded a Ki [1, 3] of 4100 pM and a Ki [2] of 23000 pM.

Reference: patent US9328138B2 (priority 2011, dated 2016)
